Where two headings read alike, the source gives them in different places.
What was measured:
[1] = system: BCG; type: cell-based, M. tuberculosis; conditions: for number of plaques observed: 72 hours incubation with drug, M. tuberculosis
[2] = system: Mycobacterium smegmatis; type: cell-based; conditions: for number of plaques observed: 72 hours incubation with drug, M. smegmatis
[3] = Isoniazid concentration 0.1 μg/ml
[4] = Isoniazid concentration 1.0 μg/ml
[5] = Isoniazid concentration 10 μg/ml
[6] = Rifampicin concentration 10 μg/ml
[7] = Rifampicin concentration 50 μg/ml
[8] = Rifampicin concentration 100 μg/ml

Structure (SMILES)	number of plaques observed [1, 3]	number of plaques observed [1, 4]	number of plaques observed [1, 5]	change in numbers of plaques ([1]; higher concentrations of isoniazid)	effect on cells judged from number of plaques versus no drug controls ([1]; lowest concentration of isoniazid)	number of plaques observed [2, 3]	number of plaques observed [2, 4]	number of plaques observed [2, 5]	effect on cells judged from numbers of plaques ([2]; isoniazid, all concentrations, only a slight reduction at the highest concentration)	number of plaques observed [1, 6]	number of plaques observed [1, 7]	number of plaques observed [1, 8]	number of plaques observed [2, 6]	number of plaques observed [2, 7]	number of plaques observed [2, 8]
NNC(=O)c1ccncc1 [Isoniazid, isoniazid]	122	40	2	marked reduction in the numbers of plaques	unaffected	++	++	+	mostly unaffected	–	–	–	–	–	–
CO[C@H]1/C=C/O[C@@]2(C)Oc3c(C)c(O)c4c(O)c(c(/C=N/N5CCN(C)CC5)c(O)c4c3C2=O)NC(=O)/C(C)=C\C=C\[C@H](C)[C@H](O)[C@@H](C)[C@@H](O)[C@@H](C)[C@H](OC(C)=O)[C@@H]1C [Rifampicin, rifampicin]	–	–	–	–	–	–	–	–	–	4	4	10	++	50	8
